Results as given in ChEMBL document CHEMBL1201862, “PubChem BioAssay data set” (2004).
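96-well plates; 48 h exposure; 5 concentrations. Endpoints by linear interpolation between flanking doses. Not reached: highest tested concentration assigned. GI50 is the concentration that inhibits growth by half.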 Activity calls are given as the source filed them. No stated cut-off is given here; in the data, active = GI50 up to about 1.1 µM and inactive = higher.

Key:
Experiment in all cases: DTP human tumour cell line panel, 48 h
SNB-19 = test system: SNB-19
NCI-H522 = test system: NCI-H522
OVCAR-5 = test system: OVCAR-5
CCRF-CEM = test system: CCRF-CEM
SF-268 = test system: SF-268
SF-295 = test system: SF-295
SF-539 = test system: SF-539
NCI-H226 = test system: NCI-H226
UO-31 = test system: UO-31
IGROV-1 = test system: IGROV-1
UACC-257 = test system: UACC-257
RPMI-8226 = test system: RPMI-8226
SK-MEL-5 = test system: SK-MEL-5
K562 = test system: K562
Malme-3M = test system: Malme-3M
LOX IMVI = test system: LOX IMVI
SNB-75 = test system: SNB-75
SK-OV-3 = test system: SK-OV-3
HCT-116 = test system: HCT-116
RXF 393 = test system: RXF 393

Compound | GI50 (SNB-19) | GI50 (NCI-H522) | GI50 (OVCAR-5) | GI50 (CCRF-CEM) | GI50 (SF-268) | GI50 (SF-295) | GI50 (SF-539) | GI50 (NCI-H226) | GI50 (UO-31) | GI50 (IGROV-1) | GI50 (UACC-257) | GI50 (RPMI-8226) | GI50 (SK-MEL-5) | GI50 (K562) | GI50 (Malme-3M) | GI50 (LOX IMVI) | GI50 (SNB-75) | GI50 (SK-OV-3) | GI50 (HCT-116) | GI50 (RXF 393)
CCOC(=O)C1(C(C)=O)OC(=O)c2cnccc21 (stereo not given) | > 100 µM (inactive) | > 100 µM (inactive) | > 100 µM (inactive) | > 100 µM (inactive) | > 100 µM (inactive) | > 100 µM (inactive) | > 100 µM (inactive) | > 100 µM (inactive) | > 100 µM (inactive) | > 100 µM (inactive) | > 100 µM (inactive) | > 100 µM (inactive) | > 100 µM (inactive) | > 100 µM (inactive) | > 100 µM (inactive) | > 100 µM (inactive) | > 100 µM (inactive) | > 100 µM (inactive) | > 100 µM (inactive) | > 100 µM (inactive)
CN(C)/N=C(/CC(O)(C(F)(F)F)C(F)(F)F)c1ccc([N+](=O)[O-])cc1 | > 100 µM (inactive) | > 100 µM (inactive) | > 100 µM (inactive) | > 100 µM (inactive) | > 100 µM (inactive) | > 100 µM (inactive) | > 100 µM (inactive) | > 100 µM (inactive) | 98.6 µM (inactive) | 80.5 µM (inactive) | > 100 µM (inactive) | > 100 µM (inactive) | > 100 µM (inactive) | > 100 µM (inactive) | > 100 µM (inactive) | > 100 µM (inactive) | > 100 µM (inactive) | > 100 µM (inactive) | > 100 µM (inactive) | > 100 µM (inactive)
COc1ccc(C2=NN(C(=O)c3ccc(Cl)cc3)C(O)(c3cc(F)c(Cl)cc3Cl)C2)cc1 (stereo not given) | > 100 µM (inactive) | > 100 µM (inactive) | > 100 µM (inactive) | 50.2 µM (inactive) | > 100 µM (inactive) | > 100 µM (inactive) | > 100 µM (inactive) | > 100 µM (inactive) | 16.9 µM (inactive) | > 100 µM (inactive) | 49.9 µM (inactive) | 22.9 µM (inactive) | > 100 µM (inactive) | 40.6 µM (inactive) | > 100 µM (inactive) | 77.8 µM (inactive) | 15 µM (inactive) | > 100 µM (inactive) | 23.4 µM (inactive) | > 100 µM (inactive)
CC(=O)NC(CCC(=O)C=[N+]=[N-])C(=O)O (stereo not given) | > 100 µM (inactive) | > 100 µM (inactive) | > 100 µM (inactive) | > 100 µM (inactive) | > 100 µM (inactive) | > 100 µM (inactive) | > 100 µM (inactive) | > 100 µM (inactive) | > 100 µM (inactive) | > 100 µM (inactive) | > 100 µM (inactive) | > 100 µM (inactive) | > 100 µM (inactive) | > 100 µM (inactive) | > 100 µM (inactive) | > 100 µM (inactive) | > 100 µM (inactive) | > 100 µM (inactive) | > 100 µM (inactive) | > 100 µM (inactive)
COC1=CC(C2c3cc4c(cc3[C@@H](Nc3ccc([N+](=O)[O-])cc3)C3COC(=O)[C@H]23)OCO4)=CC(=O)C1=O (stereo not given in full) | 3.07 µM (inactive) | 2.58 µM (inactive) | 5.53 µM (inactive) | 1.06 µM (active) | 2.53 µM (inactive) | 2.09 µM (inactive) | 1.82 µM (inactive) | 1.64 µM (inactive) | 6.24 µM (inactive) | 13 µM (inactive) | 16.1 µM (inactive) | 2.43 µM (inactive) | 3.48 µM (inactive) | 6.22 µM (inactive) | 4.46 µM (inactive) | 2.15 µM (inactive) | 1.54 µM (inactive) | 2.48 µM (inactive) | 6.64 µM (inactive) | 17.9 µM (inactive)
